We go through 15 compounds from patent US20240116926A1, “HETEROAROMATIC COMPOUNDS” (AstraZeneca AB, priority 2022, published 2024).

SMILES strings stand for the structures. Values after ≈ are worked out from the molar mass of the structure shown.

Data set [1] can be described thus: Protein binding measurements in human plasma (Hu PPB). The class given is in vitro ADME. The note with it: equilibrium dialysis for 18 hours, fraction unbound. The protocol: The automated equilibrium dialysis assay in human plasma uses the RED (Rapid Equilibrium Dialysis) Device and sample handling. The assay generally runs over two to three days including delivery of results. After dialysis for 18 hours, plasma and buffer samples are prepared for analysis by liquid chromatography and mass spectrometry. Samples are generally tested in singlicates and quantified by LC/MSMS by using a 7-point calibration curve in plasma. The compounds are pooled together in plasma pools up to 10 compounds. Three reference compounds are used in each run, Propranolol, Metoprolol and Warfarin. Warfarin is used as a control in each pool and Propranolol and Metoprolol are placed randomly in each run. An in-house Excel macro is used for preparation of files for the robot and the mass spectrometer and is also used for the calculations of fraction unbound (fu %) in plasma.

Another data set has as its target TEAD4(217-434) (Homo sapiens (Human), UniProt Q15561). Nature of the data set: TEAD4 FRET. The format is binding. To be noted: depalmitoylated, biotinylated TEAD4(217-434), FAM labelled Probe A, 120 min at 25° C.
Another data set relates to MCF7-Tead cell line. Nature of the data set: TEAD reporter assay. The note with it: MCF7-Tead cells, luciferase activity after 24 hours. The format is cell-based.
A short description of data set [2]: Solubility (thermodynamic, shake-flask). The format is physicochemical. To be noted: thermodynamic from solid; aqueous phosphate buffer (pH 7.4), 24 hours at 25° C. The method, boiled down: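 Shake-flask method starting from 10 mM DMSO stocks, which are dried before use. Residue equilibrated 24 h at 25° C. in aqueous phosphate buffer, pH 7.4. Dissolved fraction separated and quantified by UPLC/MS/MS, with QC samples in each run.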

For data set [3], the system named is MCF7-Luciferase cell line. Kind of data set: Control reporter (MCF7-Luciferase). To be noted: MCF7-Luciferase cells, luciferase activity after 24 hours. The class given is cell-based.

Sequence of TEAD4(217-434) (Q15561 217-434): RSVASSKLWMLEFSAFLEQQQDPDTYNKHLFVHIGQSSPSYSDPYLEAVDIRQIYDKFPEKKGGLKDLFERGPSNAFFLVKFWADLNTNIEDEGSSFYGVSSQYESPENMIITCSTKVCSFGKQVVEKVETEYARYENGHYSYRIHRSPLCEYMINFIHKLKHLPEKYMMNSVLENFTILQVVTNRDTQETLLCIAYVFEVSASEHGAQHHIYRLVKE

`C=CC(=O)N1CC[C@H](Nc2nnc(-c3ccc(C(F)(F)F)cn3)c3cccnc23)C1` [Example 16, (S)-1-(3-((5-(5-(trifluoromethyl)pyridin-2-yl)pyrido[2,3-d]pyridazin-8-yl)amino)pyrrolidin-1-yl)prop-2-en-1-one]: in data set [1], the “Hu PPB (% free)” value was 25.0 % free. Also, the values for the half-maximal inhibitory concentration (IC50) (against TEAD4(217-434); in the data set on MCF7-Tead cell line; in data set [3]) were 0.27 µM, 0.354 µM and > 31.7 µM, respectively. The compound further came in with a solubility at 24 h in data set [2] of 114 µM (≈ 47.2 µg/mL).
As to `C=CC(=O)N1C[C@H](O)[C@H](Nc2nnc(-c3ccc(C(F)(F)F)cc3)c3cccnc23)C1` [Example 33, 1-((3S,4R)-3-hydroxy-4-((5-(4-(trifluoromethyl)phenyl)pyrido[2,3-d]pyridazin-8-yl)amino)pyrrolidin-1-yl)prop-2-en-1-one], the “Hu PPB (% free)” value in data set [1] is 17.0 % free. Further, the IC50 against TEAD4(217-434) was 0.068 µM; with MCF7-Tead cell line, 0.107 µM; in data set [3], > 31.7 µM. For the same compound, the solubility at 24 h in data set [2] is 365 µM (≈ 157 µg/mL).
In the same order, the values of `C=CC(=O)N1C[C@@H](CO)[C@H](Nc2nnc(-c3ccc(C(F)(F)F)cc3)c3ccccc23)C1` [Example 23, 1-((3R,4S)-3-(hydroxymethyl)-4-((4-(4-(trifluoromethyl)phenyl)phthalazin-1-yl)amino)pyrrolidin-1-yl)prop-2-en-1-one] are 4.7 % free, 0.042 µM, 0.014 µM, > 31.7 µM and 48 µM (≈ 21.2 µg/mL).
As to `C=CC(=O)N1CCC[C@H](Nc2nnc(-c3ccc(C(F)(F)F)cc3)c3ccccc23)C1` [Example 50, (S)-1-(3-((4-(4-(trifluoromethyl)phenyl)phthalazin-1-yl)amino)piperidin-1-yl)prop-2-en-1-one], the “Hu PPB (% free)” value in data set [1] was found to be 5.4 % free. In addition, the 50% inhibitory concentration (IC50) came to 0.03 µM on TEAD4(217-434), 0.187 µM with MCF7-Tead cell line and 29 µM in data set [3]. The solubility at 24 h in data set [2] was < 1.6 µM.
In the same order, the values of `C=CC(=O)N1C[C@H](CO)[C@H](Nc2nnc(-c3ccc(C(F)(F)F)cc3)c3ccccc23)C1` [Example 49, 1-((3S,4S)-3-(hydroxymethyl)-4-((4-(4-(trifluoromethyl)phenyl)phthalazin-1-yl)amino)pyrrolidin-1-yl)prop-2-en-1-one] are 9.8 % free, 0.059 µM, 0.057 µM, > 31.7 µM and 165 µM (≈ 72.9 µg/mL).
In the same order, the values of `C=CC(=O)N1C[C@@H](CO)[C@H](Nc2ncc(-c3ccc(C(F)(F)F)cn3)c3ncccc23)C1` [Example 37, 1-((3R,4S)-3-(hydroxymethyl)-4-((8-(5-(trifluoromethyl)pyridin-2-yl)-1,6-naphthyridin-5-yl)amino)pyrrolidin-1-yl)prop-2-en-1-one] are 17.0 % free, 0.18 µM, 0.033 µM, > 31.7 µM and 155 µM (≈ 68.7 µg/mL).
Taken in the same sequence, the figures for `C=CC(=O)N1C[C@@H](COC)[C@H](Nc2nnc(-c3ccc(C(F)(F)F)cc3)c3ccccc23)C1` [Example 28, 1-((3R,4S)-3-(methoxymethyl)-4-((4-(4-(trifluoromethyl)phenyl)phthalazin-1-yl)amino)pyrrolidin-1-yl)prop-2-en-1-one] were 3.9 % free, 0.061 µM, 0.071 µM, > 31.7 µM and 168 µM (≈ 76.7 µg/mL).
For the compound `C=C(F)C(=O)N1C[C@H](F)[C@H](Nc2nnc(-c3ccc(C(F)(F)F)cc3)c3cccnc23)C1` [Example 6, 2-fluoro-1-((3S,4R)-3-fluoro-4-((5-(4-(trifluoromethyl)phenyl)pyrido[2,3-d]pyridazin-8-yl)amino)pyrrolidin-1-yl)prop-2-en-1-one], the “Hu PPB (% free)” value in data set [1] turned out to be 6.2 % free. Moreover, the concentration for half-maximal inhibition (IC50) against TEAD4(217-434) worked out at 0.078 µM; in the data set on MCF7-Tead cell line it was 0.297 µM; in data set [3] it was 29.9 µM. For the same compound, the solubility at 24 h in data set [2] is 158 µM (≈ 71 µg/mL).
`C=CC(=O)N1C[C@H](CO)[C@@H](Nc2nnc(-c3ccc(C(F)(F)F)cc3)c3ccccc23)C1` [Example 22, 1-((3S,4R)-3-(hydroxymethyl)-4-((4-(4-(trifluoromethyl)phenyl)phthalazin-1-yl)amino)pyrrolidin-1-yl)prop-2-en-1-one]: in data set [1], the “Hu PPB (% free)” value is listed as 5.4 % free. The figures for the IC50 (at TEAD4(217-434); with MCF7-Tead cell line; in data set [3]) were 0.95 µM, 0.957 µM and > 31.7 µM, respectively. Besides, in data set [2], the solubility at 24 h was 65 µM (≈ 28.8 µg/mL).
Turning to `C=CC(=O)N1CC[C@@H](c2nc(-c3ccc(C(F)(F)F)cc3)c3ccccc3n2)C1` (racemic) [Comparative Example C, 1-(3-{4-[4-(trifluoromethyl)phenyl]-2-quinazolinyl}-1-pyrrolidinyl)-2-propen-1-one, reference compound], in data set [1], the “Hu PPB (% free)” value was found to be 1.1 % free. Also, the concentration for half-maximal inhibition (IC50) against TEAD4(217-434) came out at 0.055 µM; in the data set with MCF7-Tead cell line, 0.26 µM; in data set [3] it was 22.7 µM. The solubility at 24 h in data set [2] was 66 µM (≈ 26.2 µg/mL).
In the same order, the values of `C=CC(=O)N1C[C@@H](CO)[C@H](Nc2nnc(-c3ccc(C(F)(F)F)cc3)c3cccnc23)C1` [Example 26, 1-((3R,4S)-3-(hydroxymethyl)-4-((5-(4-(trifluoromethyl)phenyl)pyrido[2,3-d]pyridazin-8-yl)amino)pyrrolidin-1-yl)prop-2-en-1-one] are 26.0 % free, 0.076 µM, 0.042 µM, > 31.7 µM and 175 µM (≈ 77.6 µg/mL).
Taken in the same sequence, the figures for `C=CC(=O)N1CC[C@H](Nc2ncc(-c3ccc(C(F)(F)F)cc3)c3nccnc23)C1` [Example 45, (S)-1-(3-((8-(4-(trifluoromethyl)phenyl)pyrido[3,4-b]pyrazin-5-yl)amino)pyrrolidin-1-yl)prop-2-en-1-one] were 3.9 % free, 0.012 µM, 0.011 µM, 19 µM and 13.6 µM (≈ 5.62 µg/mL).
With `C=CC(=O)N1C[C@H](O)[C@H](Nc2nnc(-c3ccc(C(F)(F)F)cc3)c3cccc(F)c23)C1` [Example 14, 1-((3R,4S)-3-((8-fluoro-4-(4-(trifluoromethyl)phenyl)phthalazin-1-yl)amino)-4-hydroxypyrrolidin-1-yl)prop-2-en-1-one], the “Hu PPB (% free)” value in data set [1] was 7.7 % free. Moreover, the IC50 turned out to be 0.049 µM on TEAD4(217-434), 0.026 µM in the data set with MCF7-Tead cell line and 19.2 µM in data set [3]. In data set [2], this compound registered a solubility at 24 h of 39 µM (≈ 17.4 µg/mL).
On to `C=CC(=O)N1CC[C@H](Nc2nnc(-c3ccc(C(F)(F)F)cc3)c3ncccc23)C1` [Example 7, (S)-1-(3-((8-(4-(trifluoromethyl)phenyl)pyrido[2,3-d]pyridazin-5-yl)amino)pyrrolidin-1-yl)prop-2-en-1-one], for which the “Hu PPB (% free)” value in data set [1] is 9.0 % free. Also, the IC50 turned out to be 0.033 µM against TEAD4(217-434), 0.081 µM in the data set with MCF7-Tead cell line and 28.4 µM in data set [3]. Also, the solubility at 24 h in data set [2] stood at 8.6 µM (≈ 3.56 µg/mL).
`C=CC(=O)N1C[C@H](O)[C@H](Nc2nnc(-c3ccc(C(F)(F)F)cc3)c3ncccc23)C1` [Example 32, 1-((3S,4R)-3-hydroxy-4-((8-(4-(trifluoromethyl)phenyl)pyrido[2,3-d]pyridazin-5-yl)amino)pyrrolidin-1-yl)prop-2-en-1-one]: in data set [1], the “Hu PPB (% free)” value was 16.0 % free. The 50% inhibitory concentration (IC50) on TEAD4(217-434) was 0.042 µM; in the data set with MCF7-Tead cell line, 0.065 µM; in data set [3], > 31.7 µM. The compound also gave a solubility at 24 h in data set [2] of 52 µM (≈ 22.3 µg/mL).
